Measurements reported in patent US6689773B2, “Uracil substituted phenyl sulfamoyl carboxamides” (BASF Aktiengesellschaft, priority 2000, dated 2004).

Assays:
Type in all cases: in vivo
[1] = test system: ABUTH, Velvetleaf, Abutilon theophrasti, Medic.; test: Postemergence herbicidal evaluation (Example 147); conditions: rating scale 0-9, two to three weeks after treatment
Description: (§1) Seedling plants were grown in jiffy flats for about two weeks. The test compounds were dispersed in 80/20 acetone/water mixtures containing 1.0% SUN-IT®II, a methylated seed oil, in sufficient quantities to provide the equivalent of about 0.016 to 0.032 kg per hectare of active compound when applied to the plants through a spray nozzle operating at 40 psi for a predetermined time. After spraying, the plants were placed on greenhouse benches and were cared for in accordance with conventional greenhouse procedures. Approximately two to three weeks after treatment, the seedling plants were examined and rated according to the rating scale (0-9) set forth below. Where more than one test is involved for a given compound, the data are averaged. [table] The scale is based upon a visual observation of plant stand, vigor, malformation, size, chlorosis and overall plant appearance as compared with a control. Plant species employed in these evaluations are reported by header abbreviation, common name and scientific name. [table]

[2] = test system: ALOMY, Blackgrass, Alopecurus myosuroides; test: Postemergence herbicidal evaluation (Example 147); conditions: rating scale 0-9, two to three weeks after treatment
Description: as §1

[3] = test system: AMBEL, Ragweed, Common, Ambrosia artemiisifolia, L.; test: Postemergence herbicidal evaluation (Example 147); conditions: rating scale 0-9, two to three weeks after treatment
Description: as §1

[4] = test system: CHEAL, Lambsquarters, Chenopodium album, L. Common; test: Postemergence herbicidal evaluation (Example 147); conditions: rating scale 0-9, two to three weeks after treatment
Description: as §1

[5] = test system: DIGSA, Crabgrass, (Hairy) L, Digitaria sanguinalis, (L)Scop; test: Postemergence herbicidal evaluation (Example 147); conditions: rating scale 0-9, two to three weeks after treatment
Description: as §1

[6] = test system: ECHCG, Barnyardgrass, Echinochloa crusgalli, (L.)Beau; test: Postemergence herbicidal evaluation (Example 147); conditions: rating scale 0-9, two to three weeks after treatment
Description: as §1

[7] = test system: GLXMA, Soybean, Glycine max, (L.) Merr.; test: Postemergence herbicidal evaluation (Example 147); conditions: rating scale 0-9, two to three weeks after treatment
Description: as §1

[8] = test system: IPOHE, Morningglory, Ivyleaf, Ipomoea hederacea, (L)Jacq.; test: Postemergence herbicidal evaluation (Example 147); conditions: rating scale 0-9, two to three weeks after treatment
Description: as §1

[9] = test system: SETVI, Green foxtail, Setaria viridis, (L.)Beau; test: Postemergence herbicidal evaluation (Example 147); conditions: rating scale 0-9, two to three weeks after treatment
Description: as §1

[10] = test system: TRZAW, Winter wheat, Tritium Aestivum, L. (Winter); test: Postemergence herbicidal evaluation (Example 147); conditions: rating scale 0-9, two to three weeks after treatment
Description: as §1

[11] = test system: XANST, Cocklebur, Xanthium strumariam; test: Postemergence herbicidal evaluation (Example 147); conditions: rating scale 0-9, two to three weeks after treatment
Description: as §1

[12] = test system: ZEAMX, Field corn, Zea mays L.; test: Postemergence herbicidal evaluation (Example 147); conditions: rating scale 0-9, two to three weeks after treatment
Description: as §1

[13] = test system: ABUTH, Velvetleaf, Abutilon theophrasti, Medic.; test: Preemergence herbicidal evaluation (Example 148); conditions: rating scale 0-9, two to four weeks after treatment
Description: (§2) The scale is based upon a visual observation of plant stand, vigor, malformation, size, chlorosis and overall plant appearance as compared with a control.
(§3) The herbicidal activity of the compounds of the present invention was evaluated by the following tests wherein the seeds of a variety of monocotyledonous and dicotyledonous plants were separately mixed with potting soil and planted on top of approximately one inch of soil in separate pint cups. After planting, the cups were sprayed with the selected aqueous acetone solution containing test compound in sufficient quantity to provide the equivalent of about 0.125 to 0.250 kg per hectare of test compound per cup. The treated cups were then placed on greenhouse benches, watered and cared for in accordance with conventional greenhouse procedures. From two to four weeks after treatment, the tests were terminated and each cup was examined and rated according to the rating system provided in Example 94. When more than one test was performed for a given compound, the data were averaged.

[14] = test system: ALOMY, Blackgrass, Alopecurus myosuroides; test: Preemergence herbicidal evaluation (Example 148); conditions: rating scale 0-9, two to four weeks after treatment
Description: as §2, §3

[15] = test system: AMBEL, Ragweed, Common, Ambrosia artemiisifolia, L.; test: Preemergence herbicidal evaluation (Example 148); conditions: rating scale 0-9, two to four weeks after treatment
Description: as §2, §3

[16] = test system: CHEAL, Lambsquarters, Chenopodium album, L. Common; test: Preemergence herbicidal evaluation (Example 148); conditions: rating scale 0-9, two to four weeks after treatment
Description: as §2, §3

[17] = test system: DIGSA, Crabgrass, (Hairy) L, Digitaria sanguinalis, (L)Scop; test: Preemergence herbicidal evaluation (Example 148); conditions: rating scale 0-9, two to four weeks after treatment
Description: as §2, §3

[18] = test system: ECHCG, Barnyardgrass, Echinochloa crusgalli, (L.)Beau; test: Preemergence herbicidal evaluation (Example 148); conditions: rating scale 0-9, two to four weeks after treatment
Description: as §2, §3

[19] = test system: IPOHE, Morningglory, Ivyleaf, Ipomoea hederacea, (L)Jacq.; test: Preemergence herbicidal evaluation (Example 148); conditions: rating scale 0-9, two to four weeks after treatment
Description: as §2, §3

[20] = test system: SETVI, Green foxtail, Setaria viridis, (L.)Beau; test: Preemergence herbicidal evaluation (Example 148); conditions: rating scale 0-9, two to four weeks after treatment
Description: as §2, §3

[21] = test system: TRZAW, Winter wheat, Tritium Aestivum, L. (Winter); test: Preemergence herbicidal evaluation (Example 148); conditions: rating scale 0-9, two to four weeks after treatment
Description: as §2, §3

[22] = test system: ZEAMX, Field corn, Zea mays L.; test: Preemergence herbicidal evaluation (Example 148); conditions: rating scale 0-9, two to four weeks after treatment
Description: as §2, §3

SMILES: CCC(C)NS(=O)(=O)NC(=O)c1cc(-n2c(=O)cc(C(F)(F)F)n(C)c2=O)c(F)cc1Cl (centres unmarked) [Example 64]
- Postemergence herbicidal rating ABUTH ([1]; rate 0.016 kg/ha): 9.0
- Postemergence herbicidal rating ABUTH ([1]; rate 0.032 kg/ha): 9.0
- Postemergence herbicidal rating ALMOY ([2]; rate 0.016 kg/ha): 3.0
- Postemergence herbicidal rating ALMOY ([2]; rate 0.032 kg/ha): 5.0
- Postemergence herbicidal rating AMBEL ([3]; rate 0.016 kg/ha): 9.0
- Postemergence herbicidal rating AMBEL ([3]; rate 0.032 kg/ha): 9.0
- Postemergence herbicidal rating CHEAL ([4]; rate 0.016 kg/ha): 9.0
- Postemergence herbicidal rating CHEAL ([4]; rate 0.032 kg/ha): 9.0
- Postemergence herbicidal rating DIGSA ([5]; rate 0.016 kg/ha): 5.0
- Postemergence herbicidal rating DIGSA ([5]; rate 0.032 kg/ha): 5.0
- Postemergence herbicidal rating ECHCG ([6]; rate 0.016 kg/ha): 9.0
- Postemergence herbicidal rating ECHCG ([6]; rate 0.032 kg/ha): 9.0
- Postemergence herbicidal rating GLXMA ([7]; rate 0.016 kg/ha): 7.5
- Postemergence herbicidal rating GLXMA ([7]; rate 0.032 kg/ha): 8.0
- Postemergence herbicidal rating IPOHE ([8]; rate 0.016 kg/ha): 9.0
- Postemergence herbicidal rating IPOHE ([8]; rate 0.032 kg/ha): 9.0
- Postemergence herbicidal rating SETVI ([9]; rate 0.016 kg/ha): 8.0
- Postemergence herbicidal rating SETVI ([9]; rate 0.032 kg/ha): 9.0
- Postemergence herbicidal rating TRZAW ([10]; rate 0.016 kg/ha): 6.0
- Postemergence herbicidal rating TRZAW ([10]; rate 0.032 kg/ha): 7.0
- Postemergence herbicidal rating XANST ([11]; rate 0.016 kg/ha): 9.0
- Postemergence herbicidal rating XANST ([11]; rate 0.032 kg/ha): 9.0
- Postemergence herbicidal rating ZEAMX ([12]; rate 0.016 kg/ha): 7.5
- Postemergence herbicidal rating ZEAMX ([12]; rate 0.032 kg/ha): 8.0
- Preemergence herbicidal rating ABUTH ([13]; rate 0.125 kg/ha): 9.0
- Preemergence herbicidal rating ABUTH ([13]; rate 0.25 kg/ha): 9.0
- Preemergence herbicidal rating ALMOY ([14]; rate 0.125 kg/ha): 0.0
- Preemergence herbicidal rating ALMOY ([14]; rate 0.25 kg/ha): 4.0
- Preemergence herbicidal rating AMBEL ([15]; rate 0.125 kg/ha): 9.0
- Preemergence herbicidal rating AMBEL ([15]; rate 0.25 kg/ha): 9.0
- Preemergence herbicidal rating CHEAL ([16]; rate 0.125 kg/ha): 9.0
- Preemergence herbicidal rating CHEAL ([16]; rate 0.25 kg/ha): 9.0
- Preemergence herbicidal rating DIGSA ([17]; rate 0.125 kg/ha): 8.0
- Preemergence herbicidal rating DIGSA ([17]; rate 0.25 kg/ha): 9.0
- Preemergence herbicidal rating ECHCG ([18]; rate 0.125 kg/ha): 3.0
- Preemergence herbicidal rating ECHCG ([18]; rate 0.25 kg/ha): 7.0
- Preemergence herbicidal rating IPOHE ([19]; rate 0.125 kg/ha): 9.0
- Preemergence herbicidal rating IPOHE ([19]; rate 0.25 kg/ha): 9.0
- Preemergence herbicidal rating SETVI ([20]; rate 0.125 kg/ha): 8.0
- Preemergence herbicidal rating SETVI ([20]; rate 0.25 kg/ha): 9.0
- Preemergence herbicidal rating TRZAW ([21]; rate 0.125 kg/ha): 0.0
- Preemergence herbicidal rating TRZAW ([21]; rate 0.25 kg/ha): 3.0
- Preemergence herbicidal rating ZEAMX ([22]; rate 0.125 kg/ha): 0.0
- Preemergence herbicidal rating ZEAMX ([22]; rate 0.25 kg/ha): 2.0
